Experimental data as given in patent US7625917B2, “Thiolesters and uses thereof” (priority 1998, dated 2009).
Read-outs that look alike come from different tables or passages of the source.

Tests used:
HIV-1 virus = experiment: Virus inactivation by PCR assay of treated virions; assay type: cell-based
Text: The thiolester-treated virions can also be tested for infectivity. The virions are suspended in media (rather than solubilized) and added to target cells. The cultures are then examined to determine whether the virions are still active. To determine whether the treated virus particles are active, the cells are monitored for the presence of intracellularly-synthesized viral RNA using, for example, the polymerase chain reaction (PCR) (Rice (1993) Proc. Natl. Acad. Sci. USA 90:9721;Turpin (1996) J. Virol. 70:6180). Alternatively, cytoprotection assays can be used (Weislow (1993) J. Natl. Cancer Inst. 81:577).
An example of a compound which can be used as a control in the gel mobility shift assay is azodicarbonamide (ADA), a compound which is commercially available from the Aldrich Chemical Company (Milwaukee, Wis.).

HIV-1RF = experiment: XTT cytoprotection assay (antiviral activity); assay type: cell-based
Text: One exemplary means to determine antiviral activity is with CEM-SS cells and virus (e.g., HIV-1RF) (MOI=0.01) using the XTT (2,3-bis[2-methoxy-4-nitro-5-sulfophenyl]-5-[(phenylamino)carbonyl]-2H-tetrazolium hydroxide) cytoprotection assay, as described by Rice (1993) PNAS 90:9721-9724, and Rice (1997) Antimicrob. Agents Chemother. 41:419-426. Briefly, cells are infected with HIV-1 RF (or other virus to be tested) in the presence of various dilutions of test compounds (thiolesters and controls). The cultures are incubated for seven days. During this time control cultures without protective compounds (i.e., compounds with anti-viral activity) replicate virus, induce syncytia, and result in about 90% cell death. The cell death is measured by XTT dye reduction. XTT is a soluble tetrazolium dye that measures mitochondrial energy output, similar to MTT. Positive controls using dextran sulfate (an attachment inhibitor) or 3′-Azido-2′-3′-dideoxythymidine, AZT (a reverse transcriptase inhibitor) are added to each assay. Individual assays are done in duplicate using a sister plate method.
Effective antiviral concentrations providing 50% cytoprotection (EC50), and cellular growth inhibitory concentrations causing 50% cytotoxicity (IC50) are calculated.

CEM-SS cells = experiment: cells; assay type: cell-based
Experimental: Agents Chemother. […] Briefly, cells are infected with HIV-1 RF (or other virus to be tested) in the presence of various dilutions of test compounds (thiolesters and controls). The cultures are incubated for seven days. […] The cell death is measured by XTT dye reduction. XTT is a soluble tetrazolium dye that measures mitochondrial energy output, similar to MTT. Positive controls using dextran sulfate (an attachment inhibitor) or 3′-Azido-2′-3′-dideoxythymidine, AZT (a reverse transcriptase inhibitor) are added to each assay. Individual assays are done in duplicate using a sister plate method.

[1] = molecular target: T1, recombinant HIV-1 NCp7 protein (Human immunodeficiency virus type 1 group M subtype B, UniProt P03347); experiment: Trp37 zinc finger fluorescence (zinc ejection) assay; assay type: biochemical
T1 construct: recombinant HIV-1 NCp7 protein
Experimental: Zinc finger reactivity was measured using a Zn specific fluorochrome, TSQ, N-(6-methoxy-8-quinolyl)-p-toluenesulfonamide, assay or a Trp37 zinc finger fluorescence assay. Fluorescent measurements of the Trp37 residue in the C-terminal finger of recombinant HIV-1 NCp7 protein were performed as described by Rice (1995) Science 270:1194-1197; Rice (1997) Antimicrob. Agents Chemother. 41:419-426. Measurement of Zn ejection from both fingers was measured using the Zn-selective fluorchrome probe TSQ (Molecular Probes, Eugene Oreg.) as described by Rice (1996) J. Med. Chem 39:3606-3616. […] Briefly, 50 nM NCp7 was treated with test compounds for 1 hour at RT in […] buffer containing 10% glycerol and 50 mM Tris-HCl (pH 7.5). Labeled oligomer (0.1 picomole, end labeled [^32P] was added in an equal volume of buffer containing 10% glycerol, 50 mM Tris-HCl (pH 7.5), 400 mM KCl and 40 mM MgCl2. The reaction was continued for 15 min at room temperature, and a total of […] (or ¼ of the total reaction volume) was separated on nondenaturing 4.5% polyacrylamide gels in 0.5× Tris-Borate electrophoresis buffer. NCp7-oligomer complexes were visualized by autoradiography.
Changes in the intrinsic fluorescence of aromatic protein moieties are commonly used to monitor a reaction which involves a change in protein conformation. In the present invention, fluorescence can be used to monitor the loss of metal ion from a zinc finger, e.g., the loss of zinc from a CCHC retroviral zinc finger protein, after contact with a thiolester of the invention. The intrinsic fluorescence of Trp37 in the second zinc finger of HIV-1 NC protein has been used to monitor nucleic acid binding and conformation of the zinc finger complex (see, Summers (1992) supra).
Zinc ejection is measured by the ability of compounds to chemically attack the cysteines in purified NCp7 protein resulting in a loss of fluorescence due to the. movement of the tryptophan 37 residue […] position on the protein. Zinc ejection is measured and expressed as either percent decrease in total fluorescence or decrease in relative fluorescence units per min during a 30 min assay (RFU/min). A thiolester is considered within the scope of the invention if any amount of zinc ejection is detected.

[2] = molecular target: T2, Virion-associated NCp7 proteins from cell-free HIV-1MN (Human immunodeficiency virus type 1 group M subtype B, UniProt P05888); experiment: Virion NCp7 cross-linking (non-reducing Western blotting)
T2 construct: attack on the mature NCp7 retroviral zinc fingers in the cell-free virus; endogenous in cells
Experimental: The interaction of zinc finger inhibitors, such as the thiolesters of the invention, with cell-free virus can result in modification of intravirion NCp7 protein and loss of infectivity. Virion-associated NCp7 proteins from cell-free HIV-1MN were treated with thiolester compounds 44 and 45. They were also evaluated by non-reducing Western blotting using HIV-1 NCp7-specific antibodies. […] Cross-linking by compound 45 was due to formation of intermolecular disulfide bonds because reduction with 2-mercaptoethanol (β-ME) completely reversed the gel retardation.
Virion cross linking was performed as described by Rice (1995) Science 270:1194-1197 and Turpin (1997) Antiviral Chem. Chemother. 8:60-67. Briefly, highly purified HIV-1MN (11.8 μg total protein) was incubated for 2 hour with concentrations of compound. Virions were concentrated and residual compound was removed by centrifugation (18,000×g, 1 h, 4° C.). The viral pellet was solubilized in 0.5 M Tris-HCl, (pH 6.8), 50% glycerol, 8% SDS and 0.4% bromophenol blue and proteins resolved by Western blotting. Western blotting to detect the expression of HIV-1 proteins in U1 cells or virus pellets for virion cross-linking experiments was carried out as described by Turpin (1996) J. Virol. 70:6180-6189. Briefly, 50 μg of total cellular protein for U1 experiments or the. total virion pellet (11.8 μg total viral protein) for NCp7 cross linking studies was resolved on 4 to 20% polyacrylamide gels in SDS with Tris-Glycine (Novex, San Diego Calif.). Samples for reduced gels were boiled for 5 min in the presence of 5% β-ME prior to loading. Resolved proteins were electroblotted on to polyvinylidene difluoride (PVDF) membranes, and HIV-1 specific proteins were detected using a mixture of goat anti-HIV-1 NCp7 and p24 or anti-NCp7 for virion proteins alone (a kind gift of L. E. Henderson, AIDS Vaccine Program NCI-FCRDC, Frederick, Md.). Western blots were developed using standard chemiluminescence methodologies, as produced and described by Dupont-NEN, Wilmington, Del.
Purified concentrated retrovirus and antisera against the purified NC protein of the virus can be used to test the ability of a specific compound to penetrate the virus and react with the NC protein by forming disulfide complexes in the core of the virus. Compound are mixed with the whole retrovirus under reaction conditions appropriate for the compound. The virus is then removed from the reagent by centrifugation and disrupted in, e.g., standard SDS-PAGE sample buffer with (reduced) and without (non-reduced) 2-mercaptoethanol. The viral proteins are then separated by standard SDS-PAGE and the sample examined for the presence or absence of the monomeric zinc finger protein in the non-reduced sample. Depending upon the virus used in the experiment and the conditions of electrophoresis, the zinc finger protein can be visualized by protein staining methods, or by immuno-blot methods. Compounds which react with the zinc finger protein by attacking the zinc finger complexes and forming disulfide cross-linked products inactivate the virus. Thus, compounds of interest (i.e., those which cause cross-linking), including the thiolesters of the invention, reduce the amount of monomeric zinc finger protein detected.

[3] = Table 10, 50% cytotoxicity, read-out: IC50
[4] = Table 10, average decrease in relative fluorescence units over 30 min
[5] = Table 5, 50% cytotoxicity, read-out: IC50
[6] = Table 5, average decrease in relative fluorescence units over 30 min

In the case of `NC(=O)N=NC(N)=O` [ADA, azodicarbonamide], the “inactivation of HIV-1 virus (in words)” value (HIV-1 virus) is reported as “inactivates HIV-1 virus”.
In the case of `CC(=O)NS(=O)(=O)c1ccc(NC(=O)c2ccccc2SC(=O)CCCCC[n+]2ccccc2)cc1` [Compound 55], the EC50 (HIV-1RF; Table 10, read-out: EC50 %) is reported as 10500 nM, the IC50 (CEM-SS cells; [3]) is reported as 69.7 µM and the “Zinc Finger Reactivity RFU/min” value [1, 4] is reported as 1.9 RFU/min.
`CC(=O)NS(=O)(=O)c1ccc(NC(=O)c2ccccc2SC(=O)CCCC[n+]2cccc(Cl)c2)cc1` [Compound 57] was tested, and the EC50 (HIV-1RF; Table 10, read-out: EC50 %) was 54000 nM, the IC50 (CEM-SS cells; [3]) was 264 µM and the “Zinc Finger Reactivity RFU/min” value [1, 4] was 0.2 RFU/min.
In the case of `CC(=O)NS(=O)(=O)c1ccc(NC(=O)c2cccc(NC(=O)CCCl)c2)cc1` [Compound 38], the “antiviral activity (in words)” value (HIV-1RF) is reported as “neither had appreciable antiviral activity”, the EC50 (HIV-1RF; Table 5, read-out: EC50) is reported as 38000 nM and the IC50 (CEM-SS cells; [5]) is reported as 103 µM. The “zinc finger reactivity (in words)” value [1] was “modest zinc finger reactivity” and the “Zinc Finger Reactivity RFU/min” value [1, 6] was 3.9 RFU/min.
In the case of `CC(=O)Nc1ccc(S(=O)(=O)c2ccc(NC(=O)c3ccccc3SSc3ccccc3C(=O)Nc3ccc(S(=O)(=O)c4ccc(NC(C)=O)cc4)cc3)cc2)cc1` [Compound 27 D], the EC50 (HIV-1RF; Table 3, read-out: EC50) is reported as 1500 nM, the EC50 (HIV-1RF; read-out: EC50 (concentration inhibiting 50% virus replication)) is reported as 1500 nM and the IC50 (CEM-SS cells; read-out: toxicity / IC50) is reported as 160 µM. The “zinc finger reactivity / zinc ejection rate” value [1] was 5.9 RFU/min and the “Zinc Finger Reactivity RFU/min” value ([1]; Table 3, average decrease in relative fluorescence) was 5.9 RFU/min.
In the case of `CC(=O)NS(=O)(=O)c1ccc(NC(=O)c2ccccc2SC(C)=O)cc1` [Compound 40], the EC50 (HIV-1RF; Table 5, read-out: EC50) is reported as 2800 nM, the IC50 (CEM-SS cells; [5]) is reported as 56.7 µM and the IC50 (CEM-SS cells; read-out: IC50 range) is reported as about 50 µM. The “Zinc Finger Reactivity RFU/min” value [1, 6] was 4.2 RFU/min.
In the case of `CC(=O)NS(=O)(=O)c1ccc(NC(=O)c2ccccc2NC(=O)CCCl)cc1` [Compound 37, N-[2-(3-chloro-propionamido)benzoyl]sulfacetamide], the “antiviral activity (in words)” value (HIV-1RF) is reported as “neither had appreciable antiviral activity”, the IC50 (CEM-SS cells; [5]) is reported as over 316 µM and the “zinc finger reactivity (in words)” value [1] is reported as “modest zinc finger reactivity”. The “Zinc Finger Reactivity RFU/min” value [1, 6] was 2.0 RFU/min.
With `CC(=O)NS(=O)(=O)c1ccc(NC(=O)c2ccccc2SC(=O)c2ccccc2)cc1` [Compound 41] the EC50 (HIV-1RF; Table 5, read-out: EC50) was 2600 nM, the IC50 (CEM-SS cells; [5]) was 45.7 µM and the IC50 (CEM-SS cells; read-out: IC50 range) was about 50 µM. The “Zinc Finger Reactivity RFU/min” value [1, 6] was 2.2 RFU/min.
In the case of `Cc1cn([C@H]2C[C@H](N=[N+]=[N-])[C@@H](CO)O2)c(=O)[nH]c1=O` [AZT, 3′-Azido-2′-3′-dideoxythymidine, reference compound], the “intravirion NCp7 cross-linking (in words)” value [2] is reported as “failed to cross-link NCp7”.
